Assay results published in US4637902A, “Mixed anhydrides of carbamic and hydroxamic acids” (Fuji Photo Film Co., Ltd., priority 1983, dated 1987).

assay: Measurement of Decomposition Rate of Base Precursor (gelatin film on triacetyl cellulose, absorbance change); type: physicochemical; conditions: 140° C.
Description: Measurement of Decomposition Rate of Base Precursor About 400 mg of the base precursor of the present invention was dissolved in 25 ml of methanol. Separately, 400 mg of gelatin was dissolved in 5 ml of water with heating. After cooling, 5 ml of the above-described methanol solution was added thereto and the mixture well mixed. The resulting mixture solution was uniformly coated on a triacetyl cellulose support and dried to prepare samples. The absorbance of each of the samples at λ max (around 300 nm) was previously measured, then the sample was heated on a hot plate at a definite temperature. The change in absorbance versus time was plotted to calculate first-order reaction rate. Several examples of the reaction rate constants measured by the above-described method are given below.

| Half-Life Period t1/2 | Structure (SMILES) |
| --- | --- |
| 18.7 s | CCN(CC)C(=O)ONC(=O)c1ccccc1O [Base Precursor No. (37)] |
| 7.7 s | CCCCN(CCCC)C(=O)ONC(=O)c1ccccc1O [Base Precursor No. (38), Salicylhydroxamic Acid N,N-Dibutylcarbamate] |

| Structure (SMILES) | Half-Life Period t1/2 |
| --- | --- |
| CN(C)C(=O)ONC(=O)c1ccccc1O [Base Precursor No. (1), Salicylhydroxamic Acid, N,N-Dimethylcarbamate] | 10.3 s |

same assay, conditions: head multiplier × 10^2

| Structure (SMILES) | K at 140° C. (× 10^2), first-order reaction rate constant |
| --- | --- |
| CN(C)C(=O)ONC(=O)c1ccccc1O [Base Precursor No. (1), Salicylhydroxamic Acid, N,N-Dimethylcarbamate] | 6.7 |
| CCN(CC)C(=O)ONC(=O)c1ccccc1O [Base Precursor No. (37)] | 3.7 |
| CCCCN(CCCC)C(=O)ONC(=O)c1ccccc1O [Base Precursor No. (38), Salicylhydroxamic Acid N,N-Dibutylcarbamate] | 9.0 |
